Consider one molecule from BindingDB's records for doi:10.1021/acs.jmedchem.7b00901 (University of South Australia, 2018).

This assay concerns the target Cyclin-dependent kinase inhibitor 1 (Homo sapiens, UniProt P38936). Put plainly: Inhibition of p21 (unknown origin)-induced transcription in human HT1080 p21-9-CMV-GFP cells after 3 days by fluorescence assay.

SMILES strings stand for the structures.

Cyclin-dependent kinase inhibitor 1, sequence (P38936 whole entry): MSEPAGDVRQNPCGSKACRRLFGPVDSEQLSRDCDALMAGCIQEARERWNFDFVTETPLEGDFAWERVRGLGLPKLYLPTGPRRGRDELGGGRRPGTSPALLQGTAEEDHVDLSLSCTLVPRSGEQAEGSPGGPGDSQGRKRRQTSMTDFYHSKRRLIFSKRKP

Consider `N#Cc1ccc2ncnc(NCCc3ccccc3)c2c1`, for which the midpoint of inhibition, the IC50, lay at 0.64 µM.

Broadly, the IC50 is the point on the concentration scale where inhibition reaches its midpoint.
